Source: patent publication US7405036B2, “Process for reducing pathogens in a biological sample and removing a sample pellet from a sample tube” (priority 2001, dated 2008)

Key:
Campylobacter fetus = type: cell-based
Mycoplasma species = conditions: 200 μg/ml; cited from earlier work
[1] = system: fresh semen of domestic bulls and gaur bulls; type: cell-based, Bos taurus, Bos gaur
[2] = system: bovine (Bos gaurus) sperm; assay: Percoll density gradient with trypsin, viability of cryopreserved sperm
[3] = system: cultured cells and embryos; conditions: up to 1000 μg/ml; cited from earlier work

## CC[C@H]1OC(=O)C[C@@H](O)[C@H](C)[C@@H](O[C@@H]2O[C@H](C)[C@@H](O[C@H]3C[C@@](C)(O)[C@@H](O)[C@H](C)O3)[C@H](N(C)C)[C@H]2O)[C@@H](CC=O)C[C@@H](C)C(=O)/C=C/C(C)=C/[C@@H]1CO[C@@H]1O[C@H](C)[C@@H](O)[C@@H](OC)[C@H]1OC [tylosin]
Campylobacter fetus
  sensitivity of C. fetus to antibiotic: intermediate
Mycoplasma species
  elimination of Mycoplasma species from bovine embryos: capable of eliminating
  embryo viability: without effecting embryo viability

## trypsin
[1]
  acrosomal integrity: nor any significant damage
  overall motility: no significant reduction
  viability (vital staining): no reduction
[2]
  effect on sperm of increasing trypsin concentration: no detrimental effects

## CN[C@@H]1[C@H](O)[C@H](NC)[C@H]2O[C@@]3(O)C(=O)C[C@@H](C)O[C@H]3O[C@@H]2[C@H]1O [spectinomycin]
Campylobacter fetus
  sensitivity of C. fetus to antibiotic: intermediate

## NC[C@H]1O[C@H](O[C@H]2[C@H](O)[C@@H](O[C@H]3O[C@H](CO)[C@@H](O)[C@H](N)[C@H]3O)[C@H](N)C[C@@H]2N)[C@H](O)[C@@H](O)[C@@H]1O [kanamycin]
[3]
  toxicity to cultured cells and embryos: very little toxicity

## CCC[C@@H]1C[C@@H](C(=O)N[C@@H]([C@H]2O[C@H](SC)[C@H](O)[C@@H](O)[C@H]2O)[C@@H](C)O)N(C)C1 [lincomycin]
Campylobacter fetus
  sensitivity of C. fetus to antibiotic: sensitive
